Experimental data reported in patent US20230270755A1, “COMBINATION OF MEDICATIONS IN A PARENTERAL DOSAGE FORM FOR LONG-TERM ANAESTHESIA” (PHARMAFINA ILAC SATIS VE PAZARLAMA ANONIM SIRKETI, priority 2020, published 2023).

Columns and labels:
[1] = Ropivacaine pharmacokinetics and duration of effect (literature review); type: in vivo; conditions: single dose; additional doses required for longer action
Experimental: Ropivacaine is preferably used as the hydrochloride salt and S-enantiomer thereof for acute pain management and surgical anesthesia. […] Therefore, ropivacaine loses its sensible effect within about 4 hours and additional doses are required for a longer action.

[2] = administered intravenously, cited from earlier work

In the case of `CCCN1CCCC[C@H]1C(=O)Nc1c(C)cccc1C` [Ropivacaine], the “time within which sensible effect is lost” value [1] is given as ≤ 4 h, the “mean half-life of the initial phase” value [2] is given as 14 min and the “mean absorption t1/2 of the slower phase” value ([2]; slower phase) is given as “approximately 4.2 hours”.
